Laboratory results taken from PubChem BioAssay AID2060620 (Molecular Pharmacology Branch, DTP, NCI, 2025).
pIC50: −log10 of the molar value. Where “and” joins values, the source holds several entries; their conditions need not be identical. Equal values may be shown once.

Test system: 328373-195-R-J1-PDC complex spheroids, viability % test/control
Assay: Anticancer human tumor 328373-195-R-J1-PDC patient-derived head and neck squamous carcinoma cell line growth inhibition [CLK]
Conditions: for viability, T/C: stronger effect = lower value
Source text: A high-throughput screen of multi-cell type tumor spheroids was designed to identify active combinations of […] and targeted small molecules. Complex spheroids include a stromal component modeled by human endothelial cells (HUVEC) and fibroblasts modeled by human mesenchymal stem cells (MSCs). The concentration ranges selected for each drug and investigational agent were based upon clinically achievable concentrations if the clinical Cmax of the agent was known.
Compounds. The drugs and investigational agents: cirtuvivint (SM08502; NSC835563), CC-671 (NSC850746), vemurafenib (NSC761431), tapotoclax (NSC804041), sotorasib (NSC818433), adagrasib (NSC831453), MRTX-1133 (NSC836407), BAY2416964 (NSC825713), copanlisib (NSC816437), inavolisib (NSC800729), abemaciclib (NSC768073), osimertinib (NSC779217), entinostat (NSC756642), eltanexor (KPT-8602, NSC794443), venetoclax (NSC766270), ceralasertib (NSC777638), bortezomib (NSC756655), olaparib (NSC753686), talazoparib (NSC767125), alisertib (NSC759677), peposertib (NSC802822), gemcitabine (NSC613327), 5-fluorouracil (NSC19893), SN-38 (NSC673596), oxaliplatin (NSC266046), paclitaxel (NSC125973), and doxorubicin (NSC123127), were obtained from the National Cancer Institute (NCI) Developmental Therapeutics Program Chemical Repository. The FDA-approved anticancer drug set is available from the Developmental Therapeutics Program at https://dtp.cancer.gov/organization/dscb/obtaining/available plates.htm. […] The stock solutions were prepared in dimethyl sulfoxide (DMSO, Sigma-Aldrich, St. Louis, MO, cat. D2650), except for the platinum complexes which were prepared in saline (Quality Biological, Gaithersburg, MD, cat. 114-055-101), at 800-fold the tested concentration and stored at -70 degrees C prior to their use. All drugs and investigational agents were tested over a range starting from a high concentration at or near the clinical Cmax and decreasing in half-log increments. If the clinical Cmax for an agent had not been determined, the highest concentration tested was 10 microM.
Cell Culture. All cells were maintained in an incubator at 37 degrees C and 5% CO2 with 95% humidity. The PDC lines were cultured according to standard operating procedures established by the NCI PDMR. Briefly, all PDCs were thawed and cultured in Matrigel-coated flasks prepared with a working solution of 1X Ham's F-12 nutrient mix, without supplementation (Invitrogen, Waltham, MA, cat. 11765054), 100 U/mL penicillin-streptomycin (Invitrogen, cat. 15140122), and 2.5% Matrigel (Corning Inc., Corning, NY, cat. 354248) for the first three passages. The 947758-054-R-J2-PDC line was cultured in 6B/Colon 1A media, which includes advanced DMEM/F-12 (Thermo Fisher Scientific, cat. 12634028), 10 mM HEPES (Thermo Fisher Scientific, cat. 15630080), 1X GlutaMAX supplement (Thermo Fisher Scientific, cat. 35050061), 0.1 mg/mL primocin (InvivoGen, cat. ant-pm-2), 10% defined fetal bovine serum, heat inactivated (HyClone Laboratories Inc., cat. SH30070.03HI), 1.25 mM N-Acetyl-L-cysteine (Sigma-Aldrich, cat. A9165), 10 mM nicotinamide (Sigma-Aldrich, cat. N0636), 1X B-27 supplement (Thermo Fisher Scientific, cat. 17504044), 1X N-2 supplement (Thermo Fisher Scientific, cat. 17502048), and 10 microM Y-27632 dihydrochloride (Tocris Bioscience, cat. 1254). The 876862-298-R-J1-PDC was cultured in 6E media, which includes all 6B/Colon 1A media components plus 50% L-WRN conditioned media (ATCC, cat. CRL-3276), 50 ng/mL recombinant human EGF recombinant protein (hEGF; Thermo Fisher Scientific, cat. PHG0311), 10 ng/mL recombinant human fibroblast growth factor 10 (hGFG-10; PeproTech, cat. 100-26), 1 ng/mL recombinant human fibroblast growth factor 2 (hFGF-2; PeproTech, cat. 100-18B), and 1 µM prostaglandin E2 (PGE2; Tocris, cat. 2296). The 227483-062-R1-J1-PDC line was cultured in Panc media, containing all 6E components except hFGF-2, with the addition of 500 nM SB-431542 (Selleckchem, cat. S1067) and 10 nM gastrin (Tocris, cat. 3006). […]
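Also: spheroids exposed to the agents for 7 days.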

CNC(=O)c1ccc(Nc2nc(OC3CCCC3)c3c(-c4ccc5nc(C)oc5c4)c[nH]c3n2)c(OC)c1
viability, T/C (compound 0.1 µM): 12.1% [middle of 12 runs] | viability, T/C (compound 0.316 µM): 10.1% [middle of 11 runs] | viability, T/C (compound 1 µM): 9.35% [middle of 12 runs] | viability, T/C (compound 3.16 µM): 9.17% [middle of 12 runs] | viability, T/C (compound 10 µM): 11.8% [middle of 12 runs]

COc1ccc([C@@H](O)c2cc(-c3ncnc4cc(N5CCOCC5)ccc34)c(F)cc2Cl)nn1
viability, T/C (compound 0.0316 µM): 92.4% and 111% | viability, T/C (compound 0.1 µM): 91.4% and 93% | viability, T/C (compound 0.316 µM): 88% and 80% | viability, T/C (compound 1 µM): 86.8% and 84.3% | viability, T/C (compound 3.16 µM): 76% and 71.4% | viability, T/C (compound 10 µM): 48.9% and 47.2% | pIC50 (curve of compound): 5.01 and < 5.00

COc1cccc2c1C(=O)c1c(O)c3c(c(O)c1C2=O)CC(O)(C(=O)CO)CC3OC1CC(N)C(O)C(C)O1 (stereo unspecified)
viability, T/C (compound 0.0316 µM): 14.6% and 11.2% | viability, T/C (compound 0.1 µM): 11.1% and 6.08% | viability, T/C (compound 0.316 µM): 1.12% and 2.35% | viability, T/C (compound 1 µM): 0.18% and 1.14% | viability, T/C (compound 3.16 µM): 2.47% and 0.1% | viability, T/C (compound 10 µM): 1.82% and 1.43% | pIC50 (curve of compound): > 7.50

C=CC(=O)N1CCN(c2nc(=O)n(-c3c(C)ccnc3C(C)C)c3nc(-c4c(O)cccc4F)c(F)cc23)C(C)C1 (stereo unspecified) + CN1CCN(c2cc(C(=O)Nc3cc4cc(-c5cnn(C)c5)ccc4cn3)ccn2)CC1
pIC50 (curve of first compound, second compound 0.0316 µM): < 5.00 | pIC50 (curve of first compound, second compound 0.1 µM): < 5.00 | pIC50 (curve of first compound, second compound 0.316 µM): > 7.50 | pIC50 (curve of first compound, second compound 1 µM): > 7.50 | pIC50 (curve of first compound, second compound 3.16 µM): > 7.50 | pIC50 (curve of first compound, second compound 10 µM): > 7.50 | viability, T/C (second compound 0.0316 µM, first compound 0.0316 µM): 93.6% | viability, T/C (second compound 0.0316 µM, first compound 0.1 µM): 90.1% | viability, T/C (second compound 0.0316 µM, first compound 0.316 µM): 99.3% | viability, T/C (second compound 0.0316 µM, first compound 1 µM): 99% | viability, T/C (second compound 0.0316 µM, first compound 3.16 µM): 94% | viability, T/C (second compound 0.0316 µM, first compound 10 µM): 77.7% | viability, T/C (second compound 0.1 µM, first compound 0.0316 µM): 80% | viability, T/C (second compound 0.1 µM, first compound 0.1 µM): 82.7% | viability, T/C (second compound 0.1 µM, first compound 0.316 µM): 89.3% | viability, T/C (second compound 0.1 µM, first compound 1 µM): 86.6% | viability, T/C (second compound 0.1 µM, first compound 3.16 µM): 83.5% | viability, T/C (second compound 0.1 µM, first compound 10 µM): 62.9% | viability, T/C (second compound 0.316 µM, first compound 0.0316 µM): 37.6% | viability, T/C (second compound 0.316 µM, first compound 0.1 µM): 37.7% | viability, T/C (second compound 0.316 µM, first compound 0.316 µM): 41.1% | viability, T/C (second compound 0.316 µM, first compound 1 µM): 43.2% | viability, T/C (second compound 0.316 µM, first compound 3.16 µM): 36.2% | viability, T/C (second compound 0.316 µM, first compound 10 µM): 16.5% | viability, T/C (second compound 1 µM, first compound 0.0316 µM): 0.2% | viability, T/C (second compound 1 µM, first compound 0.1 µM): 2.35% | viability, T/C (second compound 1 µM, first compound 0.316 µM): 0.89% | viability, T/C (second compound 1 µM, first compound 1 µM): 0.26% | viability, T/C (second compound 1 µM, first compound 3.16 µM): 1.99% | viability, T/C (second compound 1 µM, first compound 10 µM): 1.88% | viability, T/C (second compound 3.16 µM, first compound 0.0316 µM): 1.99% | viability, T/C (second compound 3.16 µM, first compound 0.1 µM): 4.29% | viability, T/C (second compound 3.16 µM, first compound 0.316 µM): 3.33% | viability, T/C (second compound 3.16 µM, first compound 1 µM): 0.14% | viability, T/C (second compound 3.16 µM, first compound 3.16 µM): 1.88% | viability, T/C (second compound 3.16 µM, first compound 10 µM): 0.7% | viability, T/C (second compound 10 µM, first compound 0.0316 µM): 1.21% | viability, T/C (second compound 10 µM, first compound 0.1 µM): 1.7% | viability, T/C (second compound 10 µM, first compound 0.316 µM): 1.33% | viability, T/C (second compound 10 µM, first compound 1 µM): 0.55% | viability, T/C (second compound 10 µM, first compound 3.16 µM): 3.67% | viability, T/C (second compound 10 µM, first compound 10 µM): 1%
